Data taken from patent US4251655A, “Substituted N-iminomethylpiperidines” (McNeilab, Inc., priority 1979, dated 1981).
Counter-ions that a name gives are not always drawn. Like-named read-outs stand apart in the source and are kept apart here.

Key:
gastric acid secretion [1] = assay: Inhibition of gastric acid secretion (Total Acid Output) in rats; antisecretory activity; assay type: in vivo, Female Sprague-Dawley rats; conditions: for inhibition in vivo at 20 mg/kg: read-out: Percent Inhibition at 20 mg/kg id; for ED50: 1 h, read-out: ED50 (dose required to produce an average of 50% inhibition in Total Acid Output versus controls)
Description: The compounds of the invention are useful for inhibition of gastric acid secretion as measured by the following test. Female Sprague-Dawley rats are fasted twenty-four hours before testing and are given water ad libidum while being kept in individual cages. On the day of testing, the rats are weighed and are selected so that the rats in each test weigh within a range of ± 20 grams.
Surgery is carried out under light ether anesthesia. As soon as the rat is anesthetized its teeth are removed and a mid-line incision is made on the abdomen about 11/2 inches in length and the stomach and duodenum are exposed. If at this point the stomach is filled with food or fecal material, the rat is discarded. If the condition of the stomach is acceptable, a purse string stitch is placed on the fundic portion of the stomach with a suture, taking care not to pierce any blood vessels in the area. A small nick is then made into the stomach in the center of the purse string, and a cannula, consisting of a small vinyl tube with a flange on one end, is put into the stomach, and the purse string stitch is closed tightly around the flange. The test compound is administered either intraduodonally (i.d.) immediately after surgery or orally (p.o.) one hour prior to surgery at doses generally ranging from about 0.25 to about 160 mg/kg in a volume of 0.5 ml/100 grams rat. Control rats receive the test vehicle, 0.5% aqueous methyl cellulose.
After the surgery and (in the case of i.d. administration) after administration of the test compound, the abdominal wall and skin are closed simultaneously with three or four 18 mm wound clips and a collecting tube is placed on the cannula. Each rat is then placed in a box in which a longitudinal slit has been made to allow the cannula to hand freely and to allow the rat to move about unencumbered. After the rat has been allowed to stabilize for thirty minutes, the collection tube on the cannula is discarded and replaced with a clean tube to receive the gastric juice. Collections are made at one hour. At the end of the study, the cannula is removed and the rat is sacrificed.
The sample of gastric contents collected is drained into a centrifuge tube and centrifuged to pack down the sediment. The volume is read and a 1 ml aliquot of the supernatant is put into a beaker containing 10 ml distilled water and is titrated to pH7 using 0.01 N sodium hydroxide. Results are determined for Volume, Titratable Acid and Total Acid Output, where Volume equals total ml of gastric juice minus sediment; Titratable Acid (meg/1) equals amount of 0.01 N sodium hydroxide needed to titrate the acid to pH7; and Total Acid Output equals Titratable Acid times Volume. Results are reported as the ED50 dose (mg/kg required to produce an average of 50% inhibition in Total Acid Output versus controls in all the animals tested for a particular compound) and as percent inhibition.
Following the test procedure previously described, the following compounds were tested for their antisecretory activity. The ED50 values for p.o. administration and the percent inhibition for i.d. administration at 20 mg/kg are tabulated below (R1 '=H except where noted): […]

gastric acid secretion [2] = assay: as above; assay type: in vivo, Female Sprague-Dawley rats; conditions: rat; for ED50: ip, intraperitoneally (footnote ++), read-out: ED50 (compound administered intraperitoneally)
[3] = rat, po, one hour prior to surgery

Structure (SMILES) | inhibition in vivo at 20 mg/kg (gastric acid secretion [1]; rat, id, 20 mg/kg) [%] | ED50 (gastric acid secretion [1]; [3]) [mg/kg] | also measured
N=CN1CCCC(C(c2ccccc2)c2ccccc2)C1 (stereo not shown) | 68 | – | ED50 (gastric acid secretion [2]): 7 mg/kg
CCCCCCCCN=CN1CCCC(C(c2ccccc2)c2ccccc2)C1 (stereo not shown) | 92.2 | 18.3 | –
N=CN1CCC(C(c2ccccc2)c2ccc(Cl)cc2)CC1 (stereo not shown) | 100 | 2.32 | –
CCCCCCCCN=CN1CCC(C(c2ccccc2)c2ccc(C)cc2)CC1 (stereo not shown) | 73 | – | –
COc1ccc(C(c2ccccc2)C2CCN(C=N)CC2)cc1 (stereo not shown) | 100 | 12.1 | –
CCCCCCCCN=CN1CCC(C(O)(c2ccccc2)c2ccccc2)CC1 | – | – | ED50 (gastric acid secretion [2]): 5 mg/kg
C(=NC12CC3CC(CC(C3)C1)C2)N1CCC(C(c2ccccc2)c2ccccc2)CC1 | 0 | 37 | % inhibition at 80 mg/kg i.d. (gastric acid secretion [2]; i.d., 80 mg/kg (footnote)): 52%
C#CCN=CN1CCC(C(c2ccccc2)c2ccccc2)CC1 | 100 | 6.07 | –
C=CCN=CN1CCC(C(c2ccccc2)c2ccccc2)CC1 | 100 | 10.2 | –
CCCCCCCCC=CCCCCCCCCN=CN1CCC(C(c2ccccc2)c2ccccc2)CC1 | 78.9 | 66 | –
CC(C)N=CN1CCC(C(c2ccccc2)c2ccccc2)CC1 | 96 | 9.8 | –
CCCCCCCN=CN1CCC(C(c2ccccc2)c2ccccc2)CC1 | 72 | 11.6 | –
Clc1ccc(CN=CN2CCC(C(c3ccccc3)c3ccccc3)CC2)cc1 | 94 | 20.7 | –
COc1ccc(CN=CN2CCC(C(c3ccccc3)c3ccccc3)CC2)cc1 | 63 | < 40 | –
C(=NCCc1ccccc1)N1CCC(C(c2ccccc2)c2ccccc2)CC1 | 100 | 3.7 | –
CCCCCCCCCCCCN=CN1CCC(C(c2ccccc2)c2ccccc2)CC1.O=C(O)/C=C/C(=O)O [4-(Diphenylmethyl)-1-N-(n-dodecyliminomethyl)piperidine fumarate] | 80 | 53 | –
CCCCCCCCN=C(C)N1CCC(C(c2ccccc2)c2ccccc2)CC1.[O-][Cl+3]([O-])([O-])O [4-(Diphenylmethyl)-1-[1-(octylimino)ethyl]-piperidine Monoperchlorate] | – | – | ED50 (gastric acid secretion [1]; Rattus norvegicus, po): 14 mg/kg; inhibition in vivo at 20 mg/kg (gastric acid secretion [1]; Rattus norvegicus): 98%
CCCCCCCCN=CN1CCC(C(c2ccccc2)c2ccc(O)cc2)CC1 (stereo not shown) [4-[(4-hydroxyphenyl)phenylmethyl]-1-[(octylimino)methyl]piperidine] | – | – | ED50 (gastric acid secretion [2]): 2 mg/kg

Structure (SMILES) | inhibition in vivo at 20 mg/kg (gastric acid secretion [1]; rat, id, 20 mg/kg) [%] | ED50 (gastric acid secretion [1]; [3]) [mg/kg] | also measured
CCCCCCCCN=CN1CCC(C(c2ccccc2)c2ccc(OC)cc2)CC1 (stereo not shown) [4-[(4-methoxyphenyl)phenylmethyl]-1-[(octylimino)methyl]piperidine] | 62 | 16.9 | –
N=CN1CCCCC1 [N-iminomethylpiperidine] | 0 | – | inhibition of gastric acid secretion at doses four times or greater than those at which the subject compounds are active (gastric acid secretion [1]; doses four times or greater than active doses of subject compounds): does not inhibit gastric acid secretion; inhibition of gastric acid secretion at a dose of 100 mg/kg p.o. (gastric acid secretion [1]; rat, p.o., 100 mg/kg): no inhibition whatsoever; ED50 (mg/kg po): result in words (gastric acid secretion [1]; rat, po, at 80 (mg/kg)): Inactive; inhibition of gastric acid secretion at 80 mg/kg i.d. (gastric acid secretion [2]; i.d., 80 mg/kg): no inhibition whatsoever
CCCCCCCCN=CN1CCC(=C(c2ccccc2)c2ccccc2)CC1 [R1,A=benzhydrylidene; R2=H; R3=n-octyl] | 68.2 | 0.625 | –
CCCCCCCCN=CN1CCC(C2c3ccccc3-c3ccccc32)CC1 [R1=9-fluorenyl; A=H; R2=H; R3=n-octyl] | 48 | 15.9 | –
N=CN1CCC(Cc2ccccc2)CC1 [R1=benzyl; A=H; R2=H; R3=H] | 98 | 114 | –
Cl.N=CN1CCC(C(c2ccccc2)c2ccccc2)CC1.O [R1=diphenylmethyl; A=H; R2=H; R3=H, 4-Diphenylmethyl-1-iminomethylpiperidine hydrochloride hydrate] | 100 | 0.7 | –
C(=NCc1ccccc1)N1CCC(C(c2ccccc2)c2ccccc2)CC1 [R1=diphenylmethyl; A=H; R2=H; R3=benzyl] | 100 | 3.3 | –
C(=NCCCCc1ccccc1)N1CCC(C(c2ccccc2)c2ccccc2)CC1 [R1=diphenylmethyl; A=H; R2=H; R3=drawing 19] | 82 | 8.1 | –
CCN=CN1CCC(C(c2ccccc2)c2ccccc2)CC1 [R1=diphenylmethyl; A=H; R2=H; R3=ethyl, 4-(Diphenylmethyl)-1-N-ethyliminomethyl-piperidine oxalate hemihydrate] | 100 | 4.3 | –
CCCCN=CN1CCC(C(c2ccccc2)c2ccccc2)CC1 [R1=diphenylmethyl; A=H; R2=H; R3=n-butyl] | 100 | 8.6 | –
CCCCCCCCCCN=CN1CCC(C(c2ccccc2)c2ccccc2)CC1 [R1=diphenylmethyl; A=H; R2=H; R3=n-decyl] | 79 | 8.2 | –
CCCCCCN=CN1CCC(C(c2ccccc2)c2ccccc2)CC1 [R1=diphenylmethyl; A=H; R2=H; R3=n-hexyl] | 96 | 8.7 | –
CCCCCCCCCN=CN1CCC(C(c2ccccc2)c2ccccc2)CC1 [R1=diphenylmethyl; A=H; R2=H; R3=n-nonyl] | 93 | 19.6 | –
CCCCCCCCN=CN1CCC(C(c2ccccc2)c2ccccc2)CC1.O.O=C(O)/C=C/C(=O)O [R1=diphenylmethyl; A=H; R2=H; R3=n-octyl, 4-(Diphenylmethyl)-1-[(octylimino)methyl]piperidine Fumarate Hydrate] | 64 | 9.8 | –
CCC(=N)N1CCC(C(c2ccccc2)c2ccccc2)CC1 [R1=diphenylmethyl; A=H; R2=ethyl; R3=H] | 75 | > 40 | –
N=CN1CCC(c2ccccc2)CC1 [R1=phenyl; A=H; R2=H; R3=H] | 77 | ~40 | –
CC(=O)C1(c2ccccc2)CCN(C=N)CC1 [R1=phenyl; A=drawing 20; R2=H; R3=H] | – | – | inhibition in vivo at 20 mg/kg (gastric acid secretion [1]; Rattus norvegicus): 71%
